Laboratory results reported in patent publication US20240124417A1, “COMPOUNDS USEFUL AS IMMUNOMODULATORS” (Bristol-Myers Squibb Company, priority 2019, published 2024).

Biological target: T1, PD-1/PD-L1 (Homo sapiens, UniProt Q9NZQ7)
T1 construct: TVMV protease site linker (C); made in house; host or cells: HEK293T cells
Test: PD-1/PD-L1 Homogenous Time-Resolved Fluorescence (HTRF) binding assay
Conditions: PD-L1-His 10 nM, PD-1-Ig 20 nM
Procedure, shortened: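 Time-resolved FRET read-out using Eu-cryptate anti-Ig (1 nM final) and APC anti-His (20 nM final). Tagged extracellular domains were used in BSA/Tween-20-supplemented dPBS, with compound pre-incubated 15 min with PD-L1-His (10 nM) before PD-1-Ig (20 nM) was added for 15 min. Other human pairs: PD-L2-His 5 nM with PD-1-Ig 20 nM; PD-L1-Ig 10 nM with CD80-His 100 nM.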

T1 sequence (Q9NZQ7 18-239): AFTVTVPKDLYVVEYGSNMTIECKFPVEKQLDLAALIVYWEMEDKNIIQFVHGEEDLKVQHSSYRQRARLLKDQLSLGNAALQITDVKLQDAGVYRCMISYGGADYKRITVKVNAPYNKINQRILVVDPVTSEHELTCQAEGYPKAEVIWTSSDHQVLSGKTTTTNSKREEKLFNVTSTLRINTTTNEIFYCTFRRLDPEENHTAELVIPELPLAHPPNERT

SMILES	IC50
Cc1c(COc2cc(OCc3cncc(C#N)c3)c(CN(C)Cc3cc(C4CC4)on3)cc2Cl)cccc1-c1cccc(OCCCN2CC[C@@H](O)C2)c1C [Example 2552, (R)-5-((4-chloro-2-((((5-cyclopropylisoxazol-3-yl)methyl)(methyl)amino)methyl)-5-((3′-(3-(3-hydroxypyrrolidin-1-yl)propoxy)-2,2′-dimethyl-[1,1′-biphenyl]-3-yl)methoxy)phenoxy)methyl)nicotinonitrile]	7.3 nM
Cc1c(COc2cc(OCc3cncc(C#N)c3)c(CNCc3nn(C)c4ccccc34)cc2Cl)cccc1-c1cccc(OCCCN2CC[C@@H](O)C2)c1C [Example 2555, (R)-5-((4-chloro-5-((3′-(3-(3-hydroxypyrrolidin-1-yl)propoxy)-2,2′-dimethyl-[1,1′-biphenyl]-3-yl)methoxy)-2-((((1-methyl-1H-indazol-3-yl)methyl)amino)methyl)phenoxy)methyl)nicotinonitrile]	0.4 nM
Cc1c(COc2cc(OCc3cncc(C#N)c3)c(CNCc3ccnn3C)cc2Cl)cccc1-c1cccc(OCCCN2CC[C@@H](O)C2)c1C [Example 2556, (R)-5-((4-chloro-5-((3′-(3-(3-hydroxypyrrolidin-1-yl)propoxy)-2,2′-dimethyl-[1,1′-biphenyl]-3-yl)methoxy)-2-((((1-methyl-1H-pyrazol-5-yl)methyl)amino)methyl)phenoxy)methyl)nicotinonitrile]	0.8 nM
Cc1c(COc2cc(OCc3cncc(C#N)c3)c(CNCc3nc4ccccc4n3Cc3ccccc3)cc2Cl)cccc1-c1cccc(OCCCN2CC[C@@H](O)C2)c1C [Example 2557, (R)-5-((2-((((1-benzyl-1H-benzo[d]imidazol-2-yl)methyl)amino)methyl)-4-chloro-5-((3′-(3-(3-hydroxypyrrolidin-1-yl)propoxy)-2,2′-dimethyl-[1,1′-biphenyl]-3-yl)methoxy)phenoxy)methyl)nicotinonitrile]	73.3 nM
COCc1noc(CNCc2cc(Cl)c(OCc3cccc(-c4cccc(OCCCN5CC[C@@H](O)C5)c4C)c3C)cc2OCc2cncc(C#N)c2)n1 [Example 2558, (R)-5-((4-chloro-5-((3′-(3-(3-hydroxypyrrolidin-1-yl)propoxy)-2,2′-dimethyl-[1,1′-biphenyl]-3-yl)methoxy)-2-((((3-(methoxymethyl)-1,2,4-oxadiazol-5-yl)methyl)amino)methyl)phenoxy)methyl)nicotinonitrile]	6.4 nM
COCc1noc(CN(C)Cc2cc(Cl)c(OCc3cccc(-c4cccc(OCCCN5CC[C@@H](O)C5)c4C)c3C)cc2OCc2cncc(C#N)c2)n1 [Example 2560, (R)-5-((4-chloro-5-((3′-(3-(3-hydroxypyrrolidin-1-yl)propoxy)-2,2′-dimethyl-[1,1′-biphenyl]-3-yl)methoxy)-2-((((3-(methoxymethyl)-1,2,4-oxadiazol-5-yl)methyl)(methyl)amino)methyl)phenoxy)methyl)nicotinonitrile]	4.5 nM
Cc1c(COc2cc(OCc3cncc(C#N)c3)c(CN(C)Cc3nc4ccccc4n3Cc3ccccc3)cc2Cl)cccc1-c1cccc(OCCCN2CC[C@@H](O)C2)c1C [Example 2561, (R)-5-((2-((((1-benzyl-1H-benzo[d]imidazol-2-yl)methyl)(methyl)amino)methyl)-4-chloro-5-((3′-(3-(3-hydroxypyrrolidin-1-yl)propoxy)-2,2′-dimethyl-[1,1′-biphenyl]-3-yl)methoxy)phenoxy)methyl)nicotinonitrile]	746 nM
Cc1c(COc2cc(OCc3cncc(C#N)c3)c(CNC3CCc4[nH]ncc4C3)cc2Cl)cccc1-c1cccc(OCCCN2CC[C@@H](O)C2)c1C (stereo partly drawn) [Example 2563, 5-((4-chloro-5-((3′-(3-((R)-3-hydroxypyrrolidin-1-yl)propoxy)-2,2′-dimethyl-[1,1′-biphenyl]-3-yl)methoxy)-2-(((4,5,6,7-tetrahydro-1H-indazol-5-yl)amino)methyl)phenoxy)methyl)nicotinonitrile]	0.5 nM
Cc1c(COc2cc(OCc3cncc(C#N)c3)c(CN(C)C3CCc4[nH]ncc4C3)cc2Cl)cccc1-c1cccc(OCCCN2CC[C@@H](O)C2)c1C (stereo partly drawn) [Example 2564, 5-((4-chloro-5-((3′-(3-((R)-3-hydroxypyrrolidin-1-yl)propoxy)-2,2′-dimethyl-[1,1′-biphenyl]-3-yl)methoxy)-2-((methyl(4,5,6,7-tetrahydro-1H-indazol-5-yl)amino)methyl)phenoxy)methyl)nicotinonitrile]	2.7 nM
Cc1c(COc2cc(OCc3cncc(C#N)c3)c(CNCc3ncc4ccccn34)cc2Cl)cccc1-c1cccc(OCCCN2CC[C@@H](O)C2)c1C [Example 2565, (R)-5-((4-chloro-5-((3′-(3-(3-hydroxypyrrolidin-1-yl)propoxy)-2,2′-dimethyl-[1,1′-biphenyl]-3-yl)methoxy)-2-(((imidazo[1,5-a]pyridin-3-ylmethyl)amino)methyl)phenoxy)methyl)nicotinonitrile]	4.7 nM
Cc1c(COc2cc(OCc3cncc(C#N)c3)c(CNCc3ncc(-c4ccccc4)o3)cc2Cl)cccc1-c1cccc(OCCCN2CC[C@@H](O)C2)c1C [Example 2566, (R)-5-((4-chloro-5-((3′-(3-(3-hydroxypyrrolidin-1-yl)propoxy)-2,2′-dimethyl-[1,1′-biphenyl]-3-yl)methoxy)-2-((((5-phenyloxazol-2-yl)methyl)amino)methyl)phenoxy)methyl)nicotinonitrile]	48.6 nM
Cc1c(COc2cc(OCc3cncc(C#N)c3)c(CN3CCc4c(cnn4-c4ccccc4)C3)cc2Cl)cccc1-c1cccc(OCCCN2CC[C@@H](O)C2)c1C [Example 2567, (R)-5-((4-chloro-5-((3′-(3-(3-hydroxypyrrolidin-1-yl)propoxy)-2,2′-dimethyl-[1,1′-biphenyl]-3-yl)methoxy)-2-((1-phenyl-1,4,6,7-tetrahydro-5H-pyrazolo[4,3-c]pyridin-5-yl)methyl)phenoxy)methyl)nicotinonitrile]	22.8 nM
Cc1c(COc2cc(OCc3cncc(C#N)c3)c(CN3CCCC(c4cc[nH]n4)C3)cc2Cl)cccc1-c1cccc(OCCCN2CC[C@@H](O)C2)c1C (stereo partly drawn) [Example 2568, 5-((2-((3-(1H-pyrazol-3-yl)piperidin-1-yl)methyl)-4-chloro-5-((3′-(3-((R)-3-hydroxypyrrolidin-1-yl)propoxy)-2,2′-dimethyl-[1,1′-biphenyl]-3-yl)methoxy)phenoxy)methyl)nicotinonitrile]	2.5 nM

Second part, the molecule after the results:

IC50	SMILES
33.2 nM	Cc1c(COc2cc(OCc3cncc(C#N)c3)c(CNCc3nc4ccccc4s3)cc2Cl)cccc1-c1cccc(OCCCN2CC[C@@H](O)C2)c1C [Example 2549, (R)-5-((2-(((benzo[d]thiazol-2-ylmethyl)amino)methyl)-4-chloro-5-((3′-(3-(3-hydroxypyrrolidin-1-yl)propoxy)-2,2′-dimethyl-[1,1′-biphenyl]-3-yl)methoxy)phenoxy)methyl)nicotinonitrile]
0.5 nM	Cc1c(COc2cc(OCc3cncc(C#N)c3)c(CN(C)Cc3ncco3)cc2Cl)cccc1-c1cccc(OCCCN2CC[C@@H](O)C2)c1C [Example 2550, (R)-5-((4-chloro-5-((3′-(3-(3-hydroxypyrrolidin-1-yl)propoxy)-2,2′-dimethyl-[1,1′-biphenyl]-3-yl)methoxy)-2-((methyl(oxazol-2-ylmethyl)amino)methyl)phenoxy)methyl)nicotinonitrile]
2.7 nM	Cc1c(COc2cc(OCc3cncc(C#N)c3)c(CN(C)Cc3cnco3)cc2Cl)cccc1-c1cccc(OCCCN2CC[C@@H](O)C2)c1C [Example 2551, (R)-5-((4-chloro-5-((3′-(3-(3-hydroxypyrrolidin-1-yl)propoxy)-2,2′-dimethyl-[1,1′-biphenyl]-3-yl)methoxy)-2-((methyl(oxazol-5-ylmethyl)amino)methyl)phenoxy)methyl)nicotinonitrile]
30.1 nM	CCc1csc(CN(C)Cc2cc(Cl)c(OCc3cccc(-c4cccc(OCCCN5CC[C@@H](O)C5)c4C)c3C)cc2OCc2cncc(C#N)c2)n1 [Example 2553, (R)-5-((4-chloro-2-((((4-ethylthiazol-2-yl)methyl)(methyl)amino)methyl)-5-((3′-(3-(3-hydroxypyrrolidin-1-yl)propoxy)-2,2′-dimethyl-[1,1′-biphenyl]-3-yl)methoxy)phenoxy)methyl)nicotinonitrile]
258 nM	Cc1c(COc2cc(OCc3cncc(C#N)c3)c(CN(C)Cc3nc4ccccc4s3)cc2Cl)cccc1-c1cccc(OCCCN2CC[C@@H](O)C2)c1C [Example 2554, (R)-5-((2-(((benzo[d]thiazol-2-ylmethyl)(methyl)amino)methyl)-4-chloro-5-((3′-(3-(3-hydroxypyrrolidin-1-yl)propoxy)-2,2′-dimethyl-[1,1′-biphenyl]-3-yl)methoxy)phenoxy)methyl)nicotinonitrile]
4.1 nM	Cc1c(COc2cc(OCc3cncc(C#N)c3)c(CN(C)Cc3ccnn3C)cc2Cl)cccc1-c1cccc(OCCCN2CC[C@@H](O)C2)c1C [Example 2559, (R)-5-((4-chloro-5-((3′-(3-(3-hydroxypyrrolidin-1-yl)propoxy)-2,2′-dimethyl-[1,1′-biphenyl]-3-yl)methoxy)-2-((methyl((1-methyl-1H-pyrazol-5-yl)methyl)amino)methyl)phenoxy)methyl)nicotinonitrile]
9.5 nM	Cc1c(COc2cc(OCc3cncc(C#N)c3)c(CN(C)Cc3nn(C)c4ccccc34)cc2Cl)cccc1-c1cccc(OCCCN2CC[C@@H](O)C2)c1C [Example 2562, (R)-5-((4-chloro-5-((3′-(3-(3-hydroxypyrrolidin-1-yl)propoxy)-2,2′-dimethyl-[1,1′-biphenyl]-3-yl)methoxy)-2-((methyl((1-methyl-1H-indazol-3-yl)methyl)amino)methyl)phenoxy)methyl)nicotinonitrile]
